Reference: PubChem BioAssay (NCI)
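All cell lines were grown in 96-well plates and treated with compound for 48 hours. TGI: total growth inhibition.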

What was measured:
Assay in all cases: DTP human tumour cell line panel, 48 h
CCRF-CEM leukemia = system: CCRF-CEM leukemia
COLO 205 colon = system: COLO 205 colon
HCC-2998 colon = system: HCC-2998 colon
HOP-62 NSCLC = system: HOP-62 NSCLC
HOP-92 NSCLC = system: HOP-92 NSCLC
HT29 colon = system: HT29 colon
IGROV1 ovarian = system: IGROV1 ovarian
NCI/ADR-RES ovarian = system: NCI/ADR-RES ovarian
OVCAR-8 ovarian = system: OVCAR-8 ovarian
RXF 393 renal = system: RXF 393 renal
SF-539 CNS = system: SF-539 CNS
SK-MEL-5 melanoma = system: SK-MEL-5 melanoma

| SMILES | TGI (CCRF-CEM leukemia) | TGI (COLO 205 colon) | TGI (HCC-2998 colon) | TGI (HOP-62 NSCLC) | TGI (HOP-92 NSCLC) | TGI (HT29 colon) | TGI (IGROV1 ovarian) | TGI (NCI/ADR-RES ovarian) | TGI (OVCAR-8 ovarian) | TGI (RXF 393 renal) | TGI (SF-539 CNS) | TGI (SK-MEL-5 melanoma) |
| --- | --- | --- | --- | --- | --- | --- | --- | --- | --- | --- | --- | --- |
| O=c1oc2cc(O)ccc2c(O)c1Cc1c(O)c2ccc(O)cc2oc1=O | > 100 µM | > 100 µM | > 100 µM | > 100 µM | > 100 µM | > 100 µM | > 100 µM | > 100 µM | > 100 µM | > 100 µM | > 100 µM | > 100 µM |
| Cc1ccc(Nc2nc3c(=O)n(C)c(=O)n(C)c3nc2Nc2ccc(C)cc2)cc1 | > 100 µM | 16 µM | 35.1 µM | 40.9 µM | 23.5 µM | 23.4 µM | 29.8 µM | 35.1 µM | 26.8 µM | 23.2 µM | 26.7 µM | 31 µM |
| CCOC(=O)C(Cl)(NC(=O)OCc1ccccc1)C(F)(F)F (configuration not stated) | > 100 µM | > 100 µM | > 100 µM | > 100 µM | > 100 µM | > 100 µM | > 100 µM | > 100 µM | > 100 µM | > 100 µM | > 100 µM | > 100 µM |
| O=C(Nc1ccc(Cl)cc1)c1cc(S(=O)(=O)Nc2nnc3c(Cl)cc(C(F)(F)F)cn23)c(S)cc1Cl | > 100 µM | > 100 µM | > 100 µM | > 100 µM | > 100 µM | > 100 µM | > 100 µM | > 100 µM | > 100 µM | > 100 µM | > 100 µM | > 100 µM |
| COC(=O)/C=C1/OC(c2ccc(OC)cc2)=C(Cl)C1=O | 17.7 µM | 23.7 µM | 41.1 µM | 39.2 µM | 57.5 µM | 36.5 µM | 34.1 µM | 66.5 µM | 28.2 µM | 31.7 µM | 41 µM | 27.2 µM |
| CCO/C=N/C1=C(C#N)SC2=N/C(=C\c3ccccc3)C(=O)N21 | > 100 µM | > 100 µM | > 100 µM | > 100 µM | > 100 µM | > 100 µM | > 100 µM | > 100 µM | > 100 µM | > 100 µM | > 100 µM | > 100 µM |
